In ChEMBL document CHEMBL1201862, “PubChem BioAssay data set” (2004):
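Dose response: 5 concentrations. Exposure: 48 h. Format: 96-well plates. Endpoint: linear interpolation; highest concentration if not reached. Here, GI50 denotes the concentration required for 50% inhibition of growth.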 Calls of active or inactive are those of the source. Rule as the data show it: active = GI50 up to about 1.1 µM and inactive = higher.

What was measured:
Test in all cases: NCI tumour cell line growth inhibition, 48 h
RPMI-8226 = test system: RPMI-8226
MDA-N = test system: MDA-N
Hs-578T = test system: Hs-578T
DU-145 = test system: DU-145
ACHN = test system: ACHN
M14 = test system: M14
NCI-H460 = test system: NCI-H460
SF-295 = test system: SF-295
A498 = test system: A498
RXF 393 = test system: RXF 393
A549 = test system: A549
SK-OV-3 = test system: SK-OV-3
EKVX = test system: EKVX
MOLT-4 = test system: MOLT-4
HL-60 = test system: HL-60
CCRF-CEM = test system: CCRF-CEM
KM12 = test system: KM12
OVCAR-5 = test system: OVCAR-5
SK-MEL-28 = test system: SK-MEL-28
HOP-92 = test system: HOP-92

Measured: GI50

COc1ccc2nc(NCN3C(=O)c4ccccc4C3=O)sc2c1
inactive: RPMI-8226 > 100 µM | MDA-N > 100 µM | Hs-578T > 100 µM | DU-145 > 100 µM | ACHN > 100 µM | M14 > 100 µM | NCI-H460 > 100 µM | SF-295 > 100 µM | A498 > 100 µM | RXF 393 > 100 µM | A549 > 100 µM | SK-OV-3 > 100 µM | EKVX > 100 µM | MOLT-4 > 100 µM | HL-60 > 100 µM | CCRF-CEM > 100 µM | KM12 > 100 µM | OVCAR-5 > 100 µM | SK-MEL-28 > 100 µM | HOP-92 > 100 µM

CCCC(=O)OCC1OC(n2cc(F)c(=O)[nH]c2=O)CC1O (stereo not given)
active: RPMI-8226 0.429 µM | DU-145 0.255 µM | ACHN 0.0395 µM | M14 0.314 µM | NCI-H460 0.0221 µM | SF-295 0.0731 µM | A498 0.489 µM | A549 0.0489 µM | HL-60 0.614 µM | CCRF-CEM 0.0356 µM | HOP-92 1.1 µM
inactive: MDA-N 1.45 µM | Hs-578T 3.85 µM | RXF 393 > 10 µM | SK-OV-3 > 4.14 µM | EKVX > 10 µM | MOLT-4 > 8.55 µM | KM12 > 10 µM | OVCAR-5 > 8.11 µM | SK-MEL-28 > 6.78 µM

O=[N+]([O-])C(=C(Sc1ccccc1)Sc1ccccc1)C(Cl)=C(Cl)Cl
active: RPMI-8226 0.0292 µM | MDA-N 0.23 µM | DU-145 1.11 µM | ACHN 0.248 µM | M14 0.421 µM | RXF 393 0.413 µM | MOLT-4 0.051 µM | HL-60 0.141 µM | CCRF-CEM 0.0189 µM | OVCAR-5 0.486 µM | SK-MEL-28 0.427 µM
inactive: Hs-578T 3.32 µM | NCI-H460 5.74 µM | SF-295 11.9 µM | A498 3.44 µM | A549 2.22 µM | SK-OV-3 10.1 µM | EKVX 2.05 µM | KM12 2.44 µM | HOP-92 1.29 µM
